Results reported in US20090270350A1, “Pyridinone Pyrazole Urea and Pyrimidinone Pyrazole Urea Derivatives” (PFIZER INC., priority 2006, published 2009).

The compounds below were run against p38α (Homo sapiens, UniProt Q16539) (assay: p38α/MK2 cascade assay). Details: Table 1; inhibitors preincubated with p38α for 40 minutes; phosphorylation of Hsp27 peptide by MK-2, Caliper LabChip 3000; read-out: p38a/MK2 Cascade 40 min Pre-Incuabtion (% Inhibition): IC50.
Sequence of p38α (Q16539 whole entry): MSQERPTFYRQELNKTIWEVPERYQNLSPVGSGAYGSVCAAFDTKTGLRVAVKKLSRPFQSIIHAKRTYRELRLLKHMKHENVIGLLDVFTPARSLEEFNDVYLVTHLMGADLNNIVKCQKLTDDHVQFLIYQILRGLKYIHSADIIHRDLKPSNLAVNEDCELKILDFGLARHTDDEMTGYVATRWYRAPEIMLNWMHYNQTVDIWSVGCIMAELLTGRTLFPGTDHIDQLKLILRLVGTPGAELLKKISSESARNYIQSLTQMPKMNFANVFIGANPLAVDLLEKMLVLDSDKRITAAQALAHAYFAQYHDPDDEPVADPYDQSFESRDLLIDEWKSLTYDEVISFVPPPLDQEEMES
Format: biochemical
Method: The ability of compounds to inhibit activated p38α was determined in a p38α/MK-2 cascade assay format. The kinase activity of p38α is determined by its ability to phosphorylate/activate nonactive MK2 (54-400). Activation of MK-2 by p38α is measured by following the phosphorylation of a MK-2 specific peptide, Hsp27 peptide (FITC-KKKALSRQLSVAA). The phosphorylation of the Hsp27 peptide was quantified using the Caliper LabChip 3000. The kinase reactions were carried out in 20 mM HEPES pH 7.5, 10 mM MgCl2, 0.0005% Tween-20, 0.01% BSA, 1 mM DTT, and 2% DMSO. The inhibitors were varied between 1000-0.05 nM, while the Hsp27 peptide substrate, MgATP, and nonactive MK-2 (54-400) were held constant at 0.5 µM, 5 µM, and 1 nM, respectively. Inhibitors were preincubated with p38α for 40 minutes prior to initiating the reaction with peptide, MgATP, and MK-2. The kinase reactions were quenched after 60 minutes by the addition of stop buffer (180 mM HEPES, 30 mM EDTA, and 0.2% Coating Reagent-3).
The above protocol assay was used to determine the IC50 values for some of the compounds in the above Examples.
IC50 values were determined for the compounds listed in Table 2, using the same p38α/MK2 cascade assay used to determine the IC50 values for the compounds in Table 1. The compounds of Table 2 were prepared using methods similar to those listed in the Examples for compounds of Table 1.
`Cc1ccc(C(=O)NCCO)cc1-n1c(C)cc(OCc2ccc(F)cc2CNC(=O)Nc2cc(C(C)(C)C)nn2-c2cccc(Cl)c2)c(Cl)c1=O` [Example 195, 3-{4-[(2-{[({[3-tert-butyl-1-(3-chlorophenyl)-1H-pyrazol-5-yl]amino}carbonyl)amino]methyl}-4-fluorobenzyl)oxy]-3-chloro-6-methyl-2-oxopyridin-1(2H)-yl}-N-(2-hydroxyethyl)-4-methylbenzamide] gave an IC50 of 3.93 nM.
Work on `CNC(=O)c1ccc(C)c(-n2c(C)cc(OCc3ccc(F)cc3CNC(=O)Nc3cc(C(C)(C)C)nn3-c3cccc(Cl)c3)c(Cl)c2=O)c1` [Example 194, 3-{4-[(2-{[({[3-tert-butyl-1-(3-chlorophenyl)-1H-pyrazol-5-yl]amino}carbonyl)amino]methyl}-4-fluorobenzyl)oxy]-3-chloro-6-methyl-2-oxopyridin-1(2H)-yl}-N,4-dimethylbenzamide] yielded an IC50 of 2.45 nM.
`COc1ccc(Cn2c(C)cc(OCc3ccccc3CNC(=O)Nc3cc(C(C)(C)C)nn3-c3ccc(O)cc3)c(Cl)c2=O)cc1Cl` [Example 64, 1-[3-tert-butyl-1-(4-hydroxyphenyl)-1H-pyrazol-5-yl]-3-[2-({[3-chloro-1-(3-chloro-4-methoxybenzyl)-6-methyl-2-oxo-1,2-dihydropyridin-4-yl]oxy}methyl)benzyl]urea] showed an IC50 of 7.5 nM.
Compound `CCc1c(OCc2ccccc2CNC(=O)Nc2cc(C(C)(C)C)nn2-c2cccc(OC)c2)ncn(Cc2ccc(OC)cc2)c1=O` [Example 115, 1-[3-tert-butyl-1-(3-methoxyphenyl)-1H-pyrazol-5-yl]-3-[2-({[5-ethyl-1-(4-methoxybenzyl)-6-oxo-1,6-dihydropyrimidin-4-yl]oxy}methyl)benzyl]urea] has an IC50 of 25.8 nM.
Work on `COc1cccc(Cn2c(C)cc(OCc3ccc(F)cc3CNC(=O)Nc3cc(C(C)(C)C)nn3-c3cccc(OCCO)c3)cc2=O)c1` [Example 37, 1-{3-tert-butyl-1-[3-(2-hydroxyethoxy)phenyl]-1H-pyrazol-5-yl}-3-[5-fluoro-2-({[1-(3-methoxybenzyl)-6-methyl-2-oxo-1,2-dihydropyridin-4-yl]oxy}methyl)benzyl]urea] yielded an IC50 of 29.3 nM.
`COc1ccc(Cn2c(C)cc(OCc3ccccc3CNC(=O)Nc3cc(C(C)(C)C)nn3-c3cccc(OC)c3)c(Br)c2=O)cc1` [Example 99, 1-[2-({[3-bromo-1-(4-methoxybenzyl)-6-methyl-2-oxo-1,2-dihydropyridin-4-yl]oxy}methyl)benzyl]-3-[3-tert-butyl-1-(3-methoxyphenyl)-1H-pyrazol-5-yl]urea] was tested, and the IC50 was 3.49 nM.
Work on `COc1ccc(Cn2c(C)cc(OCc3ccccc3CNC(=O)Nc3cc(C(C)(C)C)nn3-c3cccc(F)c3)c(Br)c2=O)c(OC)c1` [Example 117, 1-[2-({[3-bromo-1-(2,4-dimethoxybenzyl)-6-methyl-2-oxo-1,2-dihydropyridin-4-yl]oxy}methyl)benzyl]-3-[3-tert-butyl-1-(3-fluorophenyl)-1H-pyrazol-5-yl]urea] yielded an IC50 of 15.7 nM.
For `COc1cccc(-n2nc(C(C)(C)C)cc2NC(=O)NCc2cc(F)ccc2COc2cc(C)n(-c3cc(C(=O)O)ccc3C)c(=O)c2Cl)c1` [Example 189, 3-{4-[(2-{[({[3-tert-butyl-1-(3-methoxyphenyl)-1H-pyrazol-5-yl]amino}carbonyl)amino]methyl}-4-fluorobenzyl)oxy]-3-chloro-6-methyl-2-oxopyridin-1(2H)-yl}-4-methylbenzoic acid], the IC50 was 2.55 nM.
`CCc1c(OCc2ccccc2CNC(=O)Nc2cc(C(C)(C)C)nn2-c2ccc(C)cc2)ncn(Cc2ccccc2)c1=O` [Example 110, 1-(2-{[(1-benzyl-5-ethyl-6-oxo-1,6-dihydropyrimidin-4-yl)oxy]methyl}benzyl)-3-[3-tert-butyl-1-(4-methylphenyl)-1H-pyrazol-5-yl]urea] showed an IC50 of 14.4 nM.
`COc1cccc(-n2nc(C(C)(C)C)cc2NC(=O)NCc2ccccc2COc2cc(C)n(Cc3ccc(OC)cc3OC)c(=O)c2C)c1` [Example 123, 1-[3-tert-butyl-1-(3-methoxyphenyl)-1H-pyrazol-5-yl]-3-[2-({[1-(2,4-dimethoxybenzyl)-3,6-dimethyl-2-oxo-1,2-dihydropyridin-4-yl]oxy}methyl)benzyl]urea] gave an IC50 of 11.1 nM.
Compound `COc1cccc(Cn2c(C)cc(OCc3ccccc3CNC(=O)Nc3cc(C(C)(C)C)nn3-c3ccc(O)cc3)c(Cl)c2=O)c1` [Example 51, 1-[3-tert-butyl-1-(4-hydroxyphenyl)-1H-pyrazol-5-yl]-3-[2-({[3-chloro-1-(3-methoxybenzyl)-6-methyl-2-oxo-1,2-dihydropyridin-4-yl]oxy}methyl)benzyl]urea] has an IC50 of 5.8 nM.
Work on `COc1ccc(Cn2c(C)cc(OCc3ccccc3CNC(=O)Nc3cc(C(C)(C)C)nn3-c3cccc(OCCO)c3)c(Cl)c2=O)cc1` [Example 57, 1-{3-tert-butyl-1-[3-(2-hydroxyethoxy)phenyl]-1H-pyrazol-5-yl}-3-[2-({[3-chloro-1-(4-methoxybenzyl)-6-methyl-2-oxo-1,2-dihydropyridin-4-yl]oxy}methyl)benzyl]urea] yielded an IC50 of 9.3 nM.

Same assay, conditions: Table 2; same p38α/MK2 cascade assay; 40 minutes preincubation; read-out: p38a/MK2 Cascade 40 min Pre-Incuabtion (% Inhibition): IC50
`Cc1ccc(C(=O)NCC(O)CO)cc1-n1c(C)cc(OCc2ccccc2CNC(=O)Nc2cc(C(C)(C)C)nn2-c2ccc(O)cc2)c(Cl)c1=O` (stereo not drawn) [Example 217, 3-{4-[(2-{[({[3-tert-butyl-1-(4-hydroxyphenyl)-1H-pyrazol-5-yl]amino}carbonyl)amino]methyl}benzyl)oxy]-3-chloro-6-methyl-2-oxopyridin-1(2H)-yl}-N-(2,3-dihydroxypropyl)-4-methylbenzamide] showed an IC50 of 1.5 nM.
Work on `COc1ccccc1Cn1c(C)cc(OCc2ccccc2CNC(=O)Nc2cc(C(C)(C)C)nn2-c2ccc(Cl)c(O)c2)c(Cl)c1=O` [Example 262, 1-[3-tert-butyl-1-(4-chloro-3-hydroxyphenyl)-1H-pyrazol-5-yl]-3-[2-({[3-chloro-1-(2-methoxybenzyl)-6-methyl-2-oxo-1,2-dihydro-pyridin-4-yl]oxy}methyl)benzyl]urea] yielded an IC50 of 84.3 nM.
With `CNC(=O)c1ccc(C)c(-n2c(C)cc(OCc3ccc(F)cc3CNC(=O)Nc3cc(C(C)(C)C)nn3-c3ccc(C)cc3)c(Cl)c2=O)c1` [Example 206, 3-{4-[(2-{[({[3-tert-butyl-1-(4-methylphenyl)-1H-pyrazol-5-yl]amino}carbonyl)amino]methyl}-4-fluorobenzyl)oxy]-3-chloro-6-methyl-2-oxopyridin-1(2H)-yl}-N,4-dimethylbenzamide] the IC50 was 3.71 nM.
`Cc1cc(OCc2ccccc2CNC(=O)Nc2cc(C(C)(C)C)nn2-c2ccc(Cl)c(O)c2)c(Cl)c(=O)n1Cc1ccc(CNC(=O)CN)cc1` [Example 272, N-[4-({4-[(2-{[({[3-tert-butyl-1-(4-chloro-3-hydroxyphenyl)-1H-pyrazol-5-yl]amino}carbonyl)amino]methyl}benzyl)oxy]-3-chloro-6-methyl-2-oxopyridin-1(2H)-yl}methyl)benzyl]-glycinamide] gave an IC50 of 2.4 nM.
With `COc1ccc(Cn2c(C)cc(OCc3ccccc3CNC(=O)Nc3cc(C(C)(C)C)nn3-c3cccc(OCCO)c3)c(C)c2=O)cc1C#N` [Example 250, 1-{3-tert-butyl-1-[3-(2-hydroxyethoxy)phenyl]-1H-pyrazol-5-yl}-3-[2-({[1-(3-cyano-4-methoxybenzyl)-3,6-dimethyl-2-oxo-1,2-dihydropyridin-4-yl]oxy}methyl)benzyl]urea] the IC50 was 8.4 nM.
Work on `CNC(=O)c1ccc(C)c(-n2c(C)cc(OCc3ccccc3CNC(=O)Nc3cc(C(C)(C)C)nn3-c3ccc(O)cc3)c(Cl)c2=O)c1` [Example 214, 3-{4-[(2-{[({[3-tert-butyl-1-(4-hydroxyphenyl)-1H-pyrazol-5-yl]amino}carbonyl)amino]methyl}benzyl)oxy]-3-chloro-6-methyl-2-oxopyridin-1(2H)-yl}-N,4-dimethylbenzamide] yielded an IC50 of 2.1 nM.
In the case of `COc1ccc(Cn2c(C)cc(OCc3ccccc3CNC(=O)Nc3cc(C(C)(C)C)nn3-c3cccc(Cl)c3)c(Br)c2=O)c(OC)c1` [Example 242, 1-[2-({[3-bromo-1-(2,4-dimethoxybenzyl)-6-methyl-2-oxo-1,2-dihydropyridin-4-yl]oxy}methyl)benzyl]-3-[3-tert-butyl-1-(3-chlorophenyl)-1H-pyrazol-5-yl]urea], the IC50 is reported as 10.8 nM.
For `Cc1ccc(-n2nc(C(C)(C)C)cc2NC(=O)NCc2cc(F)ccc2COc2cc(C)n(-c3cc(C(=O)O)ccc3C)c(=O)c2Br)cc1` [Example 207, 3-{3-bromo-4-[(2-{[({[3-tert-butyl-1-(4-methylphenyl)-1H-pyrazol-5-yl]amino}carbonyl)-amino]methyl}-4-fluorobenzyl)oxy]-6-methyl-2-oxopyridin-1(2H)-yl}-4-methylbenzoic acid], the IC50 was 4.54 nM.
`COC(=O)c1ccc(C)c(-n2c(C)cc(OCc3ccc(F)cc3CNC(=O)Nc3cc(C(C)(C)C)nn3-c3cccc(O)c3)c(Cl)c2=O)c1` [Example 203, methyl 3-{4-[(2-{[({[3-tert-butyl-1-(3-hydroxy-phenyl)-1H-pyrazol-5-yl]amino}-carbonyl)amino]-methyl}-4-fluorobenzyl)oxy]-3-chloro-6-methyl-2-oxopyridin-1(2H)-yl}-4-methylbenzoate] was tested, and the IC50 was 2.8 nM.
